Earlier results on 1 compound are cited in US20200360268A1, “INJECTABLE PHARMACEUTICAL COMPOSITION CONTAINING MELOXICAM, AND PREPARATION METHOD THEREFOR” (Jiangsu Hengrui Medicine Co., Ltd., priority 2017, published 2020).

Values after ≈ are worked out from the molar mass of the structure shown.

For this series the following is noted: pH 1.2 and 4.0.

On to `Cc1cnc(NC(=O)C2=C(O)c3ccccc3S(=O)(=O)N2C)s1` [Meloxicam], for which the solubility – broadly, the dissolved amount per volume that the medium holds – is 0.6 µg/mL (≈ 1.71 µM).
